The text below walks through data of the NIST ThermoML archive (doi:10.1021/je060469v).

± gives the expanded uncertainty stated by the source.

The conditions of series [1]: Liquid; for mass density: 298.15 K, 101.33 kPa.
Series [2] is described as follows: refractive index (Na D-line) (dimensionless). To be noted: 298.15 K; 101.33 kPa; Liquid; Standard Abbe refractometry.

As a reminder, the mass density is the mass of a sample divided by its volume. What is called vapor or sublimation pressure is the pressure of vapour in equilibrium with the condensed phase. In general, refractive index refers to the speed of light in vacuum divided by its phase velocity in the sample. For the compound `CCCCCC(=O)OC` [methyl hexanoate], the mass density in series [1] was determined as 879.47 ± 0.36 kg/m3. In addition, in series [1] (419.67 K), the “vapor or sublimation pressure” value turned out to be 93.32 ± 2.4 kPa. Moreover, the refractive index in series [2] was 1.4048 ± 0.0007.

`CCCCC(=O)OC` [methyl pentanoate]: the mass density in series [1] came to 884.8 ± 0.35 kg/m3. Moreover, the “vapor or sublimation pressure” value in series [1] (396.65 K) is listed as 93.32 ± 2.4 kPa. Also, the refractive index in series [2] is on record as 1.3971 ± 0.0007.

As to `CCC#N` [propanenitrile], the mass density in series [1] amounted to 776.85 ± 0.51 kg/m3. Moreover, the “vapor or sublimation pressure” value in series [1] (367.78 K) worked out at 93.32 ± 1.9 kPa. For the same compound, in series [2], the refractive index came out at 1.36368 ± 0.00073.

Regarding `CCCC(=O)OC` [methyl butanoate], the mass density in series [1] came out at 892.16 ± 0.34 kg/m3. Further, the “vapor or sublimation pressure” value in series [1] (372.31 K) is on record as 93.32 ± 1.9 kPa. The refractive index in series [2] was determined as 1.3847 ± 0.0007.
